Active and inactive are the calls of the source. The calls are words filed in the database; no cut-off is given here.
Assays:
HCT-15 = test: Cytotoxicity against human HCT15 cells by sulforhodamine B assay; assay type: functional
SK-OV-3 = test: Cytotoxicity against human SKOV3 cells by sulforhodamine B assay; assay type: functional
A549 = test: Cytotoxicity against human A549 cells by sulforhodamine B assay; assay type: functional
Bos taurus = species on record: Bos taurus; test: Inhibition of calf thymus DNA topoisomerase 1 assessed as relaxation of supercoiled Escherichia coli pBR322 DNA at 100 ug/mL after 30 mins by agarose gel electrophoresis

SMILES: COCOCc1cc(OC)ccc1-c1cc2ccc(C)cc2c(=O)[nH]1
- Activity (HCT-15): 40.05 µg/mL
- Activity (SK-OV-3): 23.08 µg/mL
- Activity (A549): 66.52 µg/mL

SMILES: COc1cc(CO)c(-c2cc3ccc(C)cc3c(=O)[nH]2)cc1OC
- Activity (HCT-15): 22.45 µg/mL
- Activity (SK-OV-3): 0.67 µg/mL
- Activity (A549): 15.15 µg/mL

SMILES: CC[C@@]1(O)C(=O)OCc2c1cc1n(c2=O)Cc2cc3ccccc3nc2-1 [CAMPTOTHECIN]
- Activity (HCT-15): 0.089 µg/mL
- Activity (SK-OV-3): 0.035 µg/mL
- Activity (A549): 0.072 µg/mL
- topoisomerase 1 inhibition (active/not active) (Bos taurus): Active

SMILES: COc1cc2c(cc1OC)-c1cc3ccc(C)cc3c(=O)n1C2
- Activity (HCT-15): 6.56 µg/mL
- Activity (SK-OV-3): 7.23 µg/mL
- Activity (A549): 24.13 µg/mL
- topoisomerase 1 inhibition (active/not active) (Bos taurus): inactive

SMILES: Cc1ccc2c(=O)[nH]c(-c3ccccc3CO)cc2c1
- Activity (HCT-15): 3.34 µg/mL
- Activity (SK-OV-3): 8.22 µg/mL
- Activity (A549): 3.66 µg/mL

SMILES: O=c1c2ccccc2cc2n1Cc1ccccc1-2
- Activity (HCT-15): 43.93 µg/mL
- Activity (SK-OV-3): 14.84 µg/mL
- Activity (A549): 3.7 µg/mL
- topoisomerase 1 inhibition (active/not active) (Bos taurus): Active

SMILES: COc1ccc2c(c1)Cn1c-2cc2ccc(C)cc2c1=O
- Activity (HCT-15): 34.33 µg/mL
- Activity (SK-OV-3): 15.34 µg/mL
- Activity (A549): 45.12 µg/mL
- topoisomerase 1 inhibition (active/not active) (Bos taurus): inactive

SMILES: COc1ccc(COCc2ccccc2-c2cc3ccccc3c(=O)[nH]2)cc1
- Activity (HCT-15): 17.39 µg/mL
- Activity (SK-OV-3): 24.66 µg/mL
- Activity (A549): 26.56 µg/mL

SMILES: COCOCc1cc(OC)ccc1-c1cc2cc(C)ccc2c(=O)[nH]1
- Activity (HCT-15): 29.26 µg/mL
- Activity (SK-OV-3): 31.26 µg/mL
- Activity (A549): 80.22 µg/mL

SMILES: Cc1ccc2cc(-c3ccccc3CO)[nH]c(=O)c2c1
- Activity (HCT-15): 23.11 µg/mL
- Activity (SK-OV-3): 0.22 µg/mL
- Activity (A549): 12.78 µg/mL

SMILES: COc1ccc2c(c1)Cn1c-2cc2cc(C)ccc2c1=O
- Activity (HCT-15): 8.78 µg/mL
- Activity (SK-OV-3): 5.52 µg/mL
- Activity (A549): 5.95 µg/mL
- topoisomerase 1 inhibition (active/not active) (Bos taurus): inactive

SMILES: Cc1ccc2c(=O)n3c(cc2c1)-c1ccccc1C3
- Activity (HCT-15): 46.35 µg/mL
- Activity (SK-OV-3): 44.12 µg/mL
- Activity (A549): 15.94 µg/mL
- topoisomerase 1 inhibition (active/not active) (Bos taurus): Active

SMILES: COc1ccc(-c2cc3cc(C)ccc3c(=O)[nH]2)c(CO)c1
- Activity (HCT-15): 4.28 µg/mL
- Activity (SK-OV-3): 14.59 µg/mL
- Activity (A549): 19.43 µg/mL

SMILES: COc1ccc(-c2cc3ccc(C)cc3c(=O)[nH]2)c(CO)c1
- Activity (HCT-15): 7.39 µg/mL
- Activity (SK-OV-3): 9.69 µg/mL
- Activity (A549): 10.11 µg/mL

SMILES: COc1ccc2c(c1)Cn1c-2cc2ccccc2c1=O
- Activity (HCT-15): 7.29 µg/mL
- Activity (SK-OV-3): 12.01 µg/mL
- Activity (A549): 9.25 µg/mL
- topoisomerase 1 inhibition (active/not active) (Bos taurus): Active

SMILES: COc1cc(CO)c(-c2cc3ccccc3c(=O)[nH]2)cc1OC
- Activity (HCT-15): 19.68 µg/mL
- Activity (SK-OV-3): 12.58 µg/mL
- Activity (A549): 7.32 µg/mL

SMILES: COCOCc1cc(OC)ccc1-c1cc2ccccc2c(=O)[nH]1
- Activity (HCT-15): 21.84 µg/mL
- Activity (SK-OV-3): 17.06 µg/mL
- Activity (A549): 32.98 µg/mL

SMILES: COc1cc(CO)c(-c2cc3cc(C)ccc3c(=O)[nH]2)cc1OC
- Activity (HCT-15): 7.17 µg/mL
- Activity (SK-OV-3): 7.8 µg/mL
- Activity (A549): 22.1 µg/mL

SMILES: O=c1[nH]c(-c2ccccc2CO)cc2ccccc12
- Activity (HCT-15): 3.88 µg/mL
- Activity (SK-OV-3): 21.98 µg/mL
- Activity (A549): 6.89 µg/mL

SMILES: COc1cc2c(cc1OC)-c1cc3cc(C)ccc3c(=O)n1C2
- Activity (HCT-15): 34.98 µg/mL
- Activity (SK-OV-3): 36.15 µg/mL
- Activity (A549): 49.09 µg/mL
- topoisomerase 1 inhibition (active/not active) (Bos taurus): inactive

SMILES: Cc1ccc2cc3n(c(=O)c2c1)Cc1ccccc1-3
- Activity (HCT-15): 35.27 µg/mL
- Activity (SK-OV-3): 48.92 µg/mL
- Activity (A549): 41.44 µg/mL
- topoisomerase 1 inhibition (active/not active) (Bos taurus): Active

SMILES: COc1ccc(COCc2ccccc2-c2cc3ccc(C)cc3c(=O)[nH]2)cc1
- Activity (HCT-15): 4.15 µg/mL
- Activity (SK-OV-3): 4.76 µg/mL
- Activity (A549): 3.33 µg/mL

SMILES: COCOCc1cc(OC)c(OC)cc1-c1cc2ccccc2c(=O)[nH]1
- Activity (HCT-15): 24.7 µg/mL
- Activity (SK-OV-3): 12.68 µg/mL
- Activity (A549): 16.04 µg/mL

SMILES: COc1ccc(-c2cc3ccccc3c(=O)[nH]2)c(CO)c1
- Activity (HCT-15): 0.21 µg/mL
- Activity (SK-OV-3): 0.37 µg/mL
- Activity (A549): 3.65 µg/mL

SMILES: COc1cc2c(cc1OC)-c1cc3ccccc3c(=O)n1C2
- Activity (HCT-15): 9.12 µg/mL
- Activity (SK-OV-3): 12.69 µg/mL
- Activity (A549): 36.75 µg/mL
- topoisomerase 1 inhibition (active/not active) (Bos taurus): inactive

SMILES: COCOCc1cc(OC)c(OC)cc1-c1cc2ccc(C)cc2c(=O)[nH]1
- Activity (HCT-15): 31.13 µg/mL
- Activity (SK-OV-3): 28.22 µg/mL
- Activity (A549): 25.02 µg/mL

SMILES: COCOCc1cc(OC)c(OC)cc1-c1cc2cc(C)ccc2c(=O)[nH]1
- Activity (HCT-15): 34.55 µg/mL
- Activity (SK-OV-3): 34.54 µg/mL
- Activity (A549): 43.65 µg/mL

SMILES: COc1ccc(COCc2ccccc2-c2cc3cc(C)ccc3c(=O)[nH]2)cc1
- Activity (HCT-15): 13.27 µg/mL
- Activity (SK-OV-3): 2.37 µg/mL
- Activity (A549): 7.44 µg/mL

From ChEMBL document CHEMBL1138593, “Structural modification of 3-arylisoquinolines to isoindolo[2,1-b]isoquinolinones for the development of novel topoisomerase 1 inhibitors with molecular docking study” (2009)
